Reference: PMC4192288 (Endocrinology, 2013)

Target: T1, 11β-hydroxysteroid dehydrogenase type 1 (11β-HSD1) (Mus musculus, UniProt P50172)
T1 construct: gene Hsd11b1; recombinant 11β-HSD1
Test: HTRF cortisol competitive assay with recombinant […]β-HSD1; also […] ex vivo inhibition in mouse liver
Format: biochemical

T1 sequence (P50172 whole entry): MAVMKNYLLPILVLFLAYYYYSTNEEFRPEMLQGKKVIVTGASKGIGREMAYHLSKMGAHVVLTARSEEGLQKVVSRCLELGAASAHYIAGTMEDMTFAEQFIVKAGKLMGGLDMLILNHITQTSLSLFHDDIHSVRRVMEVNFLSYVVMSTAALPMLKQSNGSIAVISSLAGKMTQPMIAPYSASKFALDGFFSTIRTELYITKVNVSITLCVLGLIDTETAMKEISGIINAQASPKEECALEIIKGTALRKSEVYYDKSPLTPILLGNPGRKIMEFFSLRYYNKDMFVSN

For `F[C@H]1C[C@](c2ccc(Cl)cc2)(c2nnc(C3CC3)n2C2CC2)C1` [MK-0916, 3-[1-(4-chlorophenyl)-3-fluorocyclobutyl]-4,5-dicyclopropyl-1,2,4-triazole], the IC50 was 30 nM.
